{"source": "paper PMC3909471", "about": "(European journal of medicinal chemistry, 2013)", "key": {"[1]": {"biological_target": "rat CB1 cannabinoid receptor (Rattus norvegicus, UniProt P20272)", "sequence (P20272 whole entry)": "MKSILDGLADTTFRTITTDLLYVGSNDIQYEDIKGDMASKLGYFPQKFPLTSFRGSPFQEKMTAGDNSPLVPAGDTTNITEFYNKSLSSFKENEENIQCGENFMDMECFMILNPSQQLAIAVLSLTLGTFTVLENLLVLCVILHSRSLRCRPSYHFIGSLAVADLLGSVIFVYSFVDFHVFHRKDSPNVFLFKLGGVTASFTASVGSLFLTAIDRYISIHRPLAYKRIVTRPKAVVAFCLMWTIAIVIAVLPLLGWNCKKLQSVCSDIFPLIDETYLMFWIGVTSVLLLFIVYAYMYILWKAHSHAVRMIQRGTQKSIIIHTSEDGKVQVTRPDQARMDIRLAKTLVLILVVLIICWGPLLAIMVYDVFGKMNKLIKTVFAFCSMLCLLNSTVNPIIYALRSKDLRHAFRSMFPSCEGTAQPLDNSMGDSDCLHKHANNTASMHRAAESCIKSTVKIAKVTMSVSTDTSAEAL", "assay": "[3H]CP55,940 radioligand competition binding, rat CB1", "conditions": "removal of the methyl moiety from the N-methylpiperazine analogue"}, "[2]": {"test_system": "L5 and L6 spinal nerve ligation neuropathic pain model in rats", "assay": "Spinal nerve ligation neuropathic pain model, von Frey paw withdrawal threshold", "format": "in vivo, rat", "conditions": "intraperitoneally 5 – 20 mg/kg"}, "[3]": {"biological_target": "T1, human CB2 receptors (Homo sapiens, UniProt P34972)", "T1 sequence (P34972 whole entry)": "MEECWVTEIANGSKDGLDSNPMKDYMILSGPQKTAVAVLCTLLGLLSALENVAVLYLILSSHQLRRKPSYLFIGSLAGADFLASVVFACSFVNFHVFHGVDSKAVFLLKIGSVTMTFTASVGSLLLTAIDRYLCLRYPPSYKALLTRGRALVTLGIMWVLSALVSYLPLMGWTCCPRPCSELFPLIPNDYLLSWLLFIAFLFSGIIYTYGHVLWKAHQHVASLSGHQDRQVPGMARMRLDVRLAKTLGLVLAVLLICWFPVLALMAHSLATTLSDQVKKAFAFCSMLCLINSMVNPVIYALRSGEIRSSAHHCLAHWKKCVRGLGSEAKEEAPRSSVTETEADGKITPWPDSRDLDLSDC", "assay": "Effect on CP55,940-induced CB2 internalization in hCB2 cells", "format": "cell-based", "conditions": "10 nM CP55,940 cotreated with 3 uM compound"}, "[4]": {"biological_target": "T1, human CB2 receptors", "assay": "hCB2 receptor internalization", "format": "cell-based", "conditions": "at 10 μM as printed in text"}, "[5]": {"biological_target": "human CB2 cannabinoid receptor (Homo sapiens, UniProt P34972)", "sequence (P34972 whole entry)": "as above", "assay": "[3H]CP55,940 radioligand competition binding, human CB2"}}}
{"smiles": "CCCCCn1c2ccccc2c2cc(C(=O)N3CCNCC3)ccc21", "note": "[Compound 15, (9-Pentyl-9H-carbazol-3-yl)(piperazin-1-yl)methanone]", "values": [{"measurement": "Decrease of CB1 affinity", "setting": "[1]", "result": 4, "unit": "fold"}]}
{"smiles": "CS(=O)(=O)NCCCn1c2ccccc2c2cc(C(=O)N3CCCCC3)ccc21", "note": "[Compound 64, N-(3-(3-(Piperidine-1-carbonyl)-9H-carbazol-9-yl)propyl)methanesulfonamide]", "values": [{"measurement": "Tactile allodynia (paw withdrawal threshold, von Frey filaments)", "setting": "[2]", "result": "significantly attenuated tactile allodynia in a dose-dependent manner"}]}
{"smiles": "CCCCCn1c2ccc(C(=O)N3CCCCC3)cc2c2ccc(OC)cc21", "note": "[Compound 81, (7-Methoxy-9-pentyl-9H-carbazol-3-yl)(piperidin-1-yl)methanone]", "values": [{"measurement": "Reduction of hCB2 internalization induced by CP55,940", "setting": "[3]", "result": "reduced compound CP55,940-induced internalization"}, {"measurement": "CB2 internalization", "setting": "[4]", "result": "failed to internalize CB2"}]}
{"smiles": "CCCCCn1c2ccccc2c2cc(C(=O)c3ccccc3)ccc21", "note": "[Compound 18, (9-Pentyl-9H-carbazol-3-yl)(phenyl)methanone]", "values": [{"measurement": "Reduction of hCB2 internalization induced by CP55,940", "setting": "[3]", "result": "more than 50%"}]}
{"smiles": "O=C(c1ccc2c(c1)c1ccccc1n2Cc1ccncc1)N1CCCCC1", "note": "[Compound 74, Piperidin-1-yl(9-(pyridin-4-ylmethyl)-9H-carbazol-3-yl)methanone]", "values": [{"measurement": "Improvement in CB2 selectivity", "setting": "[5]; 4-methylpyridine replacing the 4-methyltetrahydropyran fragment (vs 69)", "result": 4, "unit": "fold"}]}
{"smiles": "CCCCCn1c2ccccc2c2cc(C(=O)N3CCN(C)CC3)ccc21", "note": "[Compound 9, (4-Methylpiperazin-1-yl)(9-pentyl-9H-carbazol-3-yl)methanone]", "values": [{"measurement": "Improvement of CB2 selectivity", "setting": "[5]; compared to the piperidine analogue 4", "result": 3, "unit": "fold"}]}
{"smiles": "CCCCCn1c2ccccc2c2cc(C(=O)NCC(C)(C)C)ncc21", "note": "[Compound 35, N-(2,2-dimethylpropyl)-9-pentyl-9H-pyrido[3,4-b]indole-3-carboxamide]", "values": [{"measurement": "Reduction of hCB2 internalization induced by CP55,940", "setting": "[3]", "result": "more than 50%"}]}
